ChEMBL document CHEMBL1201862, “PubChem BioAssay data set” (2004)
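Tested at 5 concentrations; 48 h exposure; 96-well plates; endpoints linearly interpolated, else capped at highest concentration. GI50 = concentration required for 50% inhibition of growth.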 Calls of active or inactive are those of the source. Cut-off read from the data, not from the text of the source: active = GI50 up to about 1.1 µM and inactive = higher.

How the values were obtained:
Test in all cases: NCI-60 cell line screen, 48 h
[1] = tested on: SK-MEL-28
[2] = tested on: RPMI-8226
[3] = tested on: SF-268
[4] = tested on: A498
[5] = tested on: HOP-92
[6] = tested on: MDA-MB-435
[7] = tested on: RXF 393
[8] = tested on: MDA-N
[9] = tested on: COLO 205
[10] = tested on: SW-620
[11] = tested on: MCF7
[12] = tested on: SN12C
[13] = tested on: OVCAR-4
[14] = tested on: Malme-3M
[15] = tested on: OVCAR-8
[16] = tested on: Hs-578T
[17] = tested on: 786-0
[18] = tested on: HL-60
[19] = tested on: SK-MEL-5
[20] = tested on: HT-29
[21] = tested on: KM12
[22] = tested on: NCI-H460
[23] = tested on: UACC-257
[24] = tested on: NCI-H522
[25] = tested on: CCRF-CEM
[26] = tested on: OVCAR-3
[27] = tested on: MDA-MB-231
[28] = tested on: HCC 2998
[29] = tested on: HCT-15
[30] = tested on: ACHN
[31] = tested on: SF-295
[32] = tested on: HCT-116
[33] = tested on: OVCAR-5
[34] = tested on: U-251
[35] = tested on: NCI-H226
[36] = tested on: MOLT-4
[37] = tested on: A549
[38] = tested on: HOP-62
[39] = tested on: K562
[40] = tested on: CAKI-1
[41] = tested on: SF-539
[42] = tested on: PC-3
[43] = tested on: NCI-H23
[44] = tested on: SNB-19
[45] = tested on: T47D
[46] = tested on: IGROV-1
[47] = tested on: SK-OV-3
[48] = tested on: SK-MEL-2
[49] = tested on: UO-31
[50] = tested on: EKVX
[51] = tested on: M14
[52] = tested on: TK-10
[53] = tested on: DU-145
[54] = tested on: BT-549
[55] = tested on: LOX IMVI
[56] = tested on: SR
[57] = tested on: UACC-62
[58] = tested on: SNB-75
[59] = tested on: NCI/ADR-RES

Measured: GI50

CC1CC(=O)Nc2ccccc2N1C(=O)C1CC1 (stereo not drawn)
> 100 µM: [29]
inactive: [1] > 100 µM | [2] > 100 µM | [3] > 100 µM | [4] > 100 µM | [5] 19.5 µM | [6] > 100 µM | [7] > 100 µM | [8] > 100 µM | [9] > 100 µM | [10] > 100 µM | [11] > 100 µM | [12] > 100 µM | [13] > 100 µM | [14] > 100 µM | [15] > 100 µM | [16] > 100 µM | [17] > 100 µM | [18] > 100 µM | [19] > 100 µM | [20] > 100 µM | [21] > 100 µM | [22] > 100 µM | [23] > 100 µM | [24] > 100 µM | [25] > 100 µM | [26] > 100 µM | [27] > 100 µM | [28] > 100 µM | [30] > 100 µM | [31] > 100 µM | [32] > 100 µM | [33] > 100 µM | [34] > 100 µM | [35] > 100 µM | [36] > 100 µM | [37] > 100 µM | [38] > 100 µM | [39] > 100 µM | [40] > 100 µM | [41] > 100 µM | [42] > 100 µM | [43] > 100 µM | [44] > 100 µM | [45] > 100 µM | [46] > 100 µM | [47] > 100 µM | [48] > 100 µM | [49] > 100 µM | [50] > 100 µM | [51] > 100 µM | [52] > 100 µM | [53] > 100 µM | [54] > 100 µM | [55] > 100 µM

Clc1ccc(-c2cc(-c3cc4cc(Br)ccc4nc3Cl)on2)cc1
inactive: [1] 9.62 µM | [2] 15.4 µM | [3] 13.4 µM | [4] 11.7 µM | [56] 10.4 µM | [5] 27.9 µM | [6] 11 µM | [7] 15.4 µM | [8] 11.8 µM | [57] 14.5 µM | [9] 8.28 µM | [10] 10.4 µM | [11] 13.1 µM | [12] 16.1 µM | [13] 16.2 µM | [14] 18.8 µM | [15] 18.7 µM | [16] 22.8 µM | [17] 18.9 µM | [18] 1.7 µM | [19] 9.12 µM | [20] 17.5 µM | [21] 15.5 µM | [22] 10.1 µM | [23] 13 µM | [24] 10.2 µM | [25] 11.5 µM | [26] 10 µM | [28] 10.3 µM | [30] 13.8 µM | [31] 11.3 µM | [32] 12.2 µM | [33] 1.4 µM | [58] 25.1 µM | [35] 13.3 µM | [36] 14.1 µM | [37] 13.2 µM | [38] 6 µM | [39] 15.1 µM | [40] 10.9 µM | [41] 9.08 µM | [42] 16.5 µM | [43] 17.1 µM | [44] 26.7 µM | [45] 15 µM | [46] 12.9 µM | [47] 18.9 µM | [48] 9.71 µM | [49] 17.3 µM | [50] 4.93 µM | [51] 12.5 µM | [53] 18.8 µM | [59] 14.9 µM | [54] 20.2 µM | [55] 10 µM
16.2 µM: [29]

CCCCSc1nsc(N(C(=O)c2ccccc2)C(=O)c2ccccc2)n1
inactive: [1] 40.2 µM | [2] 21.6 µM | [3] 35.8 µM | [4] 31.5 µM | [56] 21.6 µM | [5] 26.2 µM | [6] 33.7 µM | [7] 32.3 µM | [8] 30.9 µM | [57] 23.4 µM | [9] 20.4 µM | [10] 41.4 µM | [11] 32.2 µM | [12] 29.2 µM | [13] 57.5 µM | [14] 26.9 µM | [15] 34.8 µM | [16] 31.2 µM | [17] 32 µM | [18] 28.1 µM | [19] 18.8 µM | [20] 29.8 µM | [21] 33.5 µM | [22] 27.5 µM | [23] 27.3 µM | [24] 25.4 µM | [25] 35.8 µM | [26] 23.7 µM | [28] 25.5 µM | [30] 49.1 µM | [31] 32.7 µM | [32] 28.8 µM | [33] 26.5 µM | [58] 25.1 µM | [34] 32.4 µM | [35] 29.7 µM | [36] 24.2 µM | [37] 36.5 µM | [38] 34 µM | [39] 29.7 µM | [40] 36.5 µM | [41] 25.1 µM | [42] 33.5 µM | [43] 30.1 µM | [44] 45.5 µM | [45] 37.9 µM | [46] 41.1 µM | [47] 31.4 µM | [48] 26.4 µM | [49] 19.5 µM | [50] 27.5 µM | [51] 29 µM | [52] 36.4 µM | [53] 33.8 µM | [59] 31.6 µM | [54] 29.1 µM | [55] 26.9 µM
30.3 µM: [29]

Cc1ccc(C2(N3CCCC3)OC(C)(C)c3cccc4cccc2c34)cc1 (stereo not drawn)
15.6 µM: [29]
inactive: [2] 22.3 µM | [3] 12.9 µM | [4] 16.2 µM | [56] 23.2 µM | [5] 1.48 µM | [6] 14.8 µM | [7] 13.5 µM | [8] 16.2 µM | [57] 13.7 µM | [9] 15.6 µM | [10] 16 µM | [11] 17.1 µM | [12] 17.5 µM | [13] 14.5 µM | [14] 18.1 µM | [15] 15.2 µM | [16] 15.6 µM | [17] 18.7 µM | [18] 30.8 µM | [19] 15 µM | [20] 13.4 µM | [21] 27.9 µM | [22] 13.5 µM | [23] 16.9 µM | [24] 12.9 µM | [25] 41.1 µM | [26] 14.9 µM | [30] 15.8 µM | [31] 14.5 µM | [32] 15.6 µM | [33] 15.8 µM | [58] 13.5 µM | [34] 16 µM | [35] 15.3 µM | [36] 20.7 µM | [37] 11 µM | [38] 16 µM | [39] 22.3 µM | [40] 15.7 µM | [41] 16.9 µM | [42] 15.4 µM | [43] 16.2 µM | [44] 16.3 µM | [45] 16.3 µM | [46] 15.9 µM | [47] 15.6 µM | [48] 14.7 µM | [49] 15.1 µM | [50] 11.4 µM | [51] 17.4 µM | [52] 16.8 µM | [53] 16.9 µM | [59] 15 µM | [54] 15.7 µM | [55] 15.7 µM

Nc1ccccc1SCc1csc(-c2ccc(Cl)cc2)n1
inactive: [1] 30.5 µM | [2] 12.7 µM | [3] 22.8 µM | [4] 23.3 µM | [56] 6.61 µM | [5] 21.9 µM | [6] 18.2 µM | [7] 24.5 µM | [57] 20 µM | [9] 18 µM | [10] 29.2 µM | [11] 23.8 µM | [12] 16.6 µM | [13] 21.8 µM | [14] 20.3 µM | [15] 30.5 µM | [16] 28.2 µM | [17] 19.9 µM | [18] 3.52 µM | [19] 14.8 µM | [20] 23.6 µM | [21] 20 µM | [22] 26.2 µM | [23] 26.5 µM | [24] 10.7 µM | [25] 5.37 µM | [26] 20.2 µM | [27] 21.3 µM | [28] 16.4 µM | [30] 25.6 µM | [31] 41.2 µM | [32] 29 µM | [33] 39.1 µM | [58] 46.7 µM | [34] 20.3 µM | [35] 20.7 µM | [36] 4.39 µM | [37] 24.5 µM | [38] 30.3 µM | [39] 16.6 µM | [40] 51.3 µM | [41] 22.2 µM | [42] 19.8 µM | [43] 24.7 µM | [44] 32.3 µM | [45] 5.07 µM | [46] 23 µM | [47] 31.7 µM | [48] 16.4 µM | [49] 15.8 µM | [50] 25.9 µM | [51] 17.4 µM | [52] 38.1 µM | [53] 34.5 µM | [59] 21.5 µM | [54] 24.1 µM | [55] 16.9 µM
26.1 µM: [29]
